Results from PubChem BioAssay (NCI).
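GI50 = concentration required for 50% inhibition of growth. TGI: total growth inhibition.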

Assays:
Assay in all cases: DTP human tumour cell line panel, 384-well format
[1] = system: 786-0 renal
[2] = system: A498 renal
[3] = system: A549 NSCLC
[4] = system: BT-549 breast
[5] = system: CCRF-CEM leukemia
[6] = system: COLO 205 colon
[7] = system: DU-145 prostate
[8] = system: EKVX NSCLC
[9] = system: HCT-116 colon
[10] = system: HCT-15 colon
[11] = system: HL-60(TB) leukemia
[12] = system: HOP-92 NSCLC
[13] = system: HS 578T breast
[14] = system: HT29 colon
[15] = system: IGROV1 ovarian
[16] = system: K-562 leukemia
[17] = system: KM12 colon
[18] = system: LOX IMVI melanoma
[19] = system: M14 melanoma
[20] = system: MDA-MB-435 melanoma
[21] = system: MDA-MB-468 breast
[22] = system: MOLT-4 leukemia
[23] = system: NCI-H226 lung
[24] = system: NCI-H23 lung
[25] = system: NCI-H322M lung
[26] = system: NCI-H460 NSCLC
[27] = system: NCI-H522 lung
[28] = system: NCI/ADR-RES ovarian
[29] = system: OVCAR-3 ovarian
[30] = system: OVCAR-4 ovarian
[31] = system: OVCAR-5 ovarian
[32] = system: OVCAR-8 ovarian
[33] = system: RXF 393 renal
[34] = system: SF-268 CNS
[35] = system: SF-539 CNS
[36] = system: SK-MEL-2 melanoma
[37] = system: SK-MEL-5 melanoma
[38] = system: SK-OV-3 ovarian
[39] = system: SN12C renal
[40] = system: SNB-75 CNS
[41] = system: SR leukemia
[42] = system: SW-620 colon
[43] = system: TK-10 renal
[44] = system: U251 glioblastoma
[45] = system: UACC-257 melanoma
[46] = system: UACC-62 melanoma
[47] = system: UO-31 renal

## Cc1cc2c(cc1C)NC1=C(N2)OC(c2c3ccccc3cc3ccccc23)C1=O (stereo not drawn)
[1]
  GI50: 261 nM
  TGI: 630 nM
[2]
  GI50: 319 nM
  TGI: 924 nM
[3]
  GI50: 626 nM
  TGI: 2200 nM
[4]
  GI50: 270 nM
  TGI: 581 nM
[5]
  GI50: 194 nM
  TGI: 341 nM
[6]
  GI50: 786 nM
  TGI: 1680 nM
[7]
  GI50: 429 nM
  TGI: 1430 nM
[8]
  GI50: 431 nM
  TGI: 6.44 µM
[9]
  GI50: 286 nM
  TGI: 759 nM
[10]
  GI50: 261 nM
  TGI: 711 nM
[11]
  GI50: 212 nM
  TGI: 363 nM
[12]
  GI50: 398 nM
  TGI: 1490 nM
[13]
  GI50: 178 nM
  TGI: 355 nM
[14]
  GI50: 303 nM
  TGI: 988 nM
[15]
  GI50: 953 nM
  TGI: 2630 nM
[16]
  GI50: 208 nM
  TGI: 491 nM
[17]
  GI50: 310 nM
  TGI: 964 nM
[18]
  GI50: 361 nM
  TGI: 1350 nM
[19]
  GI50: 290 nM
  TGI: 653 nM
[20]
  GI50: 217 nM
  TGI: 425 nM
[21]
  GI50: 218 nM
  TGI: 436 nM
[22]
  GI50: 193 nM
  TGI: 337 nM
[23]
  GI50: 743 nM
  TGI: 1860 nM
[24]
  GI50: 288 nM
  TGI: 763 nM
[25]
  GI50: 1220 nM
  TGI: 7.46 µM
[26]
  GI50: 260 nM
  TGI: 654 nM
[27]
  GI50: 192 nM
  TGI: 385 nM
[28]
  GI50: 194 nM
  TGI: 355 nM
[29]
  GI50: 237 nM
  TGI: 582 nM
[30]
  GI50: 377 nM
  TGI: 1970 nM
[31]
  GI50: 1300 nM
  TGI: 5.22 µM
[32]
  GI50: 290 nM
  TGI: 794 nM
[33]
  GI50: 285 nM
  TGI: 513 nM
[34]
  GI50: 354 nM
  TGI: 1050 nM
[35]
  GI50: 170 nM
  TGI: 380 nM
[36]
  GI50: 224 nM
  TGI: 415 nM
[37]
  GI50: 603 nM
  TGI: 1150 nM
[38]
  GI50: 253 nM
  TGI: 732 nM
[39]
  GI50: 652 nM
  TGI: 4.13 µM
[40]
  GI50: 381 nM
  TGI: 1230 nM
[41]
  GI50: 189 nM
  TGI: 340 nM
[42]
  GI50: 454 nM
  TGI: 7.47 µM
[43]
  GI50: 548 nM
  TGI: 7.54 µM
[44]
  GI50: 281 nM
  TGI: 691 nM
[45]
  GI50: 716 nM
  TGI: 3.29 µM
[46]
  GI50: 329 nM
  TGI: 1250 nM
[47]
  GI50: 1940 nM
  TGI: 9.3 µM

## O=C(O)c1ccc(CN2CCC(CN[C@@H]3C[C@H]3c3ccccc3)CC2)cc1
[1]
  GI50: > 100000 nM
  TGI: > 100000 nM
[2]
  GI50: > 100000 nM
  TGI: > 100000 nM
[3]
  GI50: > 100000 nM
  TGI: > 100000 nM
[4]
  GI50: > 100000 nM
  TGI: > 100000 nM
[5]
  GI50: > 100000 nM
  TGI: > 100000 nM
[6]
  GI50: > 100000 nM
  TGI: > 100000 nM
[7]
  GI50: > 100000 nM
  TGI: > 100000 nM
[8]
  GI50: > 100000 nM
  TGI: > 100 µM
[9]
  GI50: > 100000 nM
  TGI: > 100000 nM
[10]
  GI50: > 100000 nM
  TGI: > 100000 nM
[11]
  GI50: > 100000 nM
  TGI: > 100000 nM
[12]
  GI50: > 100000 nM
  TGI: > 100000 nM
[13]
  GI50: > 100000 nM
  TGI: > 100000 nM
[14]
  GI50: > 100000 nM
  TGI: > 100000 nM
[15]
  GI50: > 100000 nM
  TGI: > 100000 nM
[16]
  GI50: > 100000 nM
  TGI: > 100000 nM
[17]
  GI50: > 100000 nM
  TGI: > 100000 nM
[18]
  GI50: > 100000 nM
  TGI: > 100000 nM
[19]
  GI50: > 100000 nM
  TGI: > 100000 nM
[20]
  GI50: > 100000 nM
  TGI: > 100000 nM
[21]
  GI50: > 100000 nM
  TGI: > 100000 nM
[22]
  GI50: > 100000 nM
  TGI: > 100000 nM
[23]
  GI50: > 100000 nM
  TGI: > 100000 nM
[24]
  GI50: > 100000 nM
  TGI: > 100000 nM
[25]
  GI50: > 100000 nM
  TGI: > 100 µM
[26]
  GI50: > 100000 nM
  TGI: > 100000 nM
[27]
  GI50: > 100000 nM
  TGI: > 100000 nM
[28]
  GI50: > 100000 nM
  TGI: > 100000 nM
[29]
  GI50: > 100000 nM
  TGI: > 100000 nM
[30]
  GI50: > 100000 nM
  TGI: > 100000 nM
[31]
  GI50: > 100000 nM
  TGI: > 100 µM
[32]
  GI50: > 100000 nM
  TGI: > 100000 nM
[33]
  GI50: > 100000 nM
  TGI: > 100000 nM
[34]
  GI50: > 100000 nM
  TGI: > 100000 nM
[35]
  GI50: > 100000 nM
  TGI: > 100000 nM
[36]
  GI50: > 100000 nM
  TGI: > 100000 nM
[37]
  GI50: > 100000 nM
  TGI: > 100000 nM
[38]
  GI50: > 100000 nM
  TGI: > 100000 nM
[39]
  GI50: > 100000 nM
  TGI: > 100 µM
[40]
  GI50: > 100000 nM
  TGI: > 100000 nM
[41]
  GI50: > 100000 nM
  TGI: > 100000 nM
[42]
  GI50: > 100000 nM
  TGI: > 100 µM
[43]
  GI50: > 100000 nM
  TGI: > 100 µM
[44]
  GI50: > 100000 nM
  TGI: > 100000 nM
[45]
  GI50: > 100000 nM
  TGI: > 100 µM
[46]
  GI50: > 100000 nM
  TGI: > 100000 nM
[47]
  GI50: > 100000 nM
  TGI: > 100 µM
